Measurements as given in PMC12203311, “Design, synthesis, in silico and in vitro evaluation of pyrrole–indole hybrids as dual tubulin and aromatase inhibitors with potent anticancer activities” (RSC Advances, 2025).

What was measured:
Experiment in all cases: NCI60 five-dose screen
HL-60 (TB) = format: cell-based; conditions: Homo sapiens, leukemia
K-562 = format: cell-based; conditions: Homo sapiens, K562, K-562, leukemia
RPMI-8226 = format: cell-based; conditions: Homo sapiens, RPMI-8226, leukemia
A549/ATCC = format: cell-based; conditions: Homo sapiens, NSC lung cancer
EKVX = format: cell-based; conditions: Homo sapiens, NSC lung cancer
HOP-62 = format: cell-based; conditions: Homo sapiens, HOP-62, NSC lung cancer
NCI-H23 = format: cell-based; conditions: Homo sapiens, NCI-H23, NSC lung cancer
NCI-H460 = format: cell-based; conditions: Homo sapiens, NCI-H460, NSC lung cancer
NCI-H522 = format: cell-based; conditions: Homo sapiens, NCI-H522, NSC lung cancer
COLO 205 = format: cell-based, human; conditions: Homo sapiens
HCT-15 = format: cell-based; conditions: Homo sapiens, HCT-15, colon cancer
SF-295 = format: cell-based; conditions: Homo sapiens, SF-295, CNS cancer
SNB-19 = format: cell-based; conditions: Homo sapiens, SNB-19, CNS cancer
SNB-75 = format: cell-based; conditions: Homo sapiens, SNB-75, CNS cancer
U251 = format: cell-based; conditions: Homo sapiens, U-251, U251, CNS cancer
LOX IMVI = format: cell-based; conditions: Homo sapiens, melanoma
SK-MEL-2 = format: cell-based; conditions: Homo sapiens, SK-MEL-2, melanoma
SK-MEL-28 = format: cell-based; conditions: Homo sapiens, SK-MEL-28, melanoma
SK-MEL-5 = format: cell-based, human; conditions: Homo sapiens
UACC-257 = format: cell-based; conditions: Homo sapiens, UACC-257, melanoma
UACC-62 = format: cell-based; conditions: Homo sapiens, UACC-62, melanoma
IGROV1 = format: cell-based; conditions: Homo sapiens, IGROV-1; IGROV1, ovarian cancer
OVCAR-3 = format: cell-based; conditions: Homo sapiens, OVCAR-3, ovarian cancer
OVCAR-4 = format: cell-based; conditions: Homo sapiens, OVCAR-4, ovarian cancer
OVCAR-8 = format: cell-based; conditions: Homo sapiens, OVCAR-8, ovarian cancer
NCI/ADR-RES = format: cell-based, human; conditions: Homo sapiens, ovarian cancer
SK-OV-3 = format: cell-based; conditions: Homo sapiens, SK-OV-3, ovarian cancer
ACHN = format: cell-based; conditions: Homo sapiens, renal cancer
CAKI-1 = format: cell-based; conditions: Homo sapiens, CAKI-1, renal cancer
SN12C = format: cell-based; conditions: Homo sapiens, renal cancer
TK-10 = format: cell-based; conditions: Homo sapiens, TK-10, renal cancer
PC-3 = format: cell-based; conditions: Homo sapiens, PC-3, prostate cancer
DU-145 = format: cell-based; conditions: Homo sapiens, DU-145, prostate cancer
MCF7 = format: cell-based; conditions: Homo sapiens, MCF7, breast cancer
MDA-MB-231/ATCC = format: cell-based; conditions: Homo sapiens, breast cancer
BT-549 = format: cell-based; conditions: Homo sapiens, BT-549, breast cancer
[1] = read-out: LC50 (the source's name)

Compound: O=C(N/N=C/c1ccc(C(=O)N2CCOCC2)[nH]1)c1[nH]c2ccc(Br)cc2c1-c1ccccc1 [Derivative 3n, (E)-5-Bromo-N′-((5-(morpholine-4-carbonyl)-1H-pyrrol-2-yl)methylene)-3-phenyl-1H-indole-2-carbohydrazide]
- GI50 (HL-60 (TB)): 1.84 µM
- CC50 (HL-60 (TB); [1]): 8.56 µM
- GI50 (K-562): 1.27 µM
- CC50 (K-562; [1]): 42.7 µM
- GI50 (RPMI-8226): 4.5 µM
- CC50 (RPMI-8226; [1]): > 100 µM
- GI50 (A549/ATCC): 3.88 µM
- CC50 (A549/ATCC; [1]): > 100 µM
- GI50 (EKVX): 7.51 µM
- CC50 (EKVX; [1]): > 100 µM
- GI50 (HOP-62): 3.36 µM
- CC50 (HOP-62; [1]): 69.2 µM
- GI50 (NCI-H23): 2.83 µM
- CC50 (NCI-H23; [1]): 69.8 µM
- GI50 (NCI-H460): 2.49 µM
- CC50 (NCI-H460; [1]): 54.1 µM
- GI50 (NCI-H522): 1.6 µM
- CC50 (NCI-H522; [1]): 58.8 µM
- CC50 (COLO 205; COLO 205, COLO 205, colon cancer, read-out: LC50 (the source's name)): 37.5 µM
- GI50 (COLO 205; COLO 205, colon cancer): 3.12 µM
- GI50 (HCT-15): 2.62 µM
- CC50 (HCT-15; [1]): > 100 µM
- GI50 (SF-295): 1.63 µM
- CC50 (SF-295; [1]): 31 µM
- GI50 (SNB-19): 5.66 µM
- CC50 (SNB-19; [1]): > 100 µM
- GI50 (SNB-75): 0.809 µM
- CC50 (SNB-75; [1]): 88.9 µM
- GI50 (U251): 3.1 µM
- CC50 (U251; [1]): 84.7 µM
- GI50 (LOX IMVI): 3.06 µM
- CC50 (LOX IMVI; [1]): 71.2 µM
- GI50 (SK-MEL-2): 2.8 µM
- CC50 (SK-MEL-2; [1]): 48.3 µM
- GI50 (SK-MEL-28): 6.1 µM
- CC50 (SK-MEL-28; [1]): > 100 µM
- CC50 (SK-MEL-5; SK-MEL-5, SK-MEL-5, melanoma, read-out: LC50 (the source's name)): 17 µM
- GI50 (SK-MEL-5; SK-MEL-5, melanoma): 1.48 µM
- GI50 (UACC-257): 11.9 µM
- CC50 (UACC-257; [1]): 94.4 µM
- GI50 (UACC-62): 0.864 µM
- CC50 (UACC-62; [1]): 63.7 µM
- GI50 (IGROV1): 6.69 µM
- GI50 (OVCAR-3): 2.57 µM
- CC50 (OVCAR-3; [1]): 47.4 µM
- GI50 (OVCAR-4): 2.93 µM
- CC50 (OVCAR-4; [1]): > 100 µM
- GI50 (OVCAR-8): 2.86 µM
- CC50 (OVCAR-8; [1]): 43.1 µM
- GI50 (NCI/ADR-RES): 1.92 µM
- CC50 (NCI/ADR-RES; [1]): 84.1 µM
- GI50 (SK-OV-3): 5.68 µM
- CC50 (SK-OV-3; [1]): > 100 µM
- GI50 (ACHN): 4.56 µM
- CC50 (ACHN; [1]): > 100 µM
- GI50 (CAKI-1): 1.46 µM
- CC50 (CAKI-1; [1]): > 100 µM
- GI50 (SN12C): 3.14 µM
- CC50 (SN12C; [1]): 79.7 µM
- GI50 (TK-10): 10.4 µM
- CC50 (TK-10; [1]): > 100 µM
- GI50 (PC-3): 3.44 µM
- CC50 (PC-3; [1]): > 100 µM
- GI50 (DU-145): 3.72 µM
- CC50 (DU-145; [1]): > 100 µM
- GI50 (MCF7): 2.46 µM
- CC50 (MCF7; [1]): 77.8 µM
- GI50 (MDA-MB-231/ATCC): 4.81 µM
- CC50 (MDA-MB-231/ATCC; [1]): 83.2 µM
- GI50 (BT-549): 2.36 µM
- CC50 (BT-549; [1]): 55.2 µM
